Assays:
[1] = Cytotoxicity assay (CellTiter-Glo), FLS; assay type: cell-based, human; conditions: both sexes, human; concentrations up to 50 µM; read-out: Cytotoxic effect FLS IC50
From the text: (§1) This study was approved by the Institutional Review Board of University of California, San Diego School of Medicine (La Jolla, CA, USA). Informed consent was obtained from all participants. Anonymous synovial tissue samples were obtained from six patients with RA at the time of total joint replacement (5 females, 1 male; age range, 44–72 years), as previously described ([Alvaro-Gracia et al., 1990]). The diagnosis of RA conformed to American College of Rheumatology 1987 revised criteria ([Arnett et al., 1988]). The synovium was minced and incubated with collagenase type VIII (0.5 mg/ml) (Sigma-Aldrich) in serum-free RPMI-1640 (Life Technologies, Grand Island, NY, USA) for 2 h at 37°C, filtered, extensively washed, and cultured in DMEM (Life Technologies) supplemented with 10% FBS (Gemini Bio Products, Calabasas, CA, USA), penicillin, streptomycin, gentamicin, and glutamine in a humidified 5% CO2 atmosphere. Cells were allowed to adhere overnight, nonadherent cells were removed, and adherent fibroblast-like synoviocytes (FLS) were split at 1:3 when 70%–80% confluent. FLS were used from passages 3 through 9, during which time they are a homogeneous population of cells (<1% CD11b positive, <1% phagocytic, and <1% FcγRII and FcγRIII receptor positive).
(§2) Cytotoxicity was analyzed using a CellTiter-Glo Luminescent Cell Viability Assay Kit (Promega), according to the manufacturer’s protocol. […] Following treatment, substrate was added to the cells, and the samples were analyzed with a Fluoroscan Ascent FL microplate reader.

[2] = test system: FLS; assay: Cytotoxicity assay (CellTiter-Glo), FLS; assay type: cell-based, human; conditions: during the 90-min period of the c-Jun assay
From the text: as §1, §2

[3] = test system: CIA in DBA1/J mice; assay: Collagen-induced arthritis (CIA), clinical score and histopathology; assay type: in vivo; conditions: 30 mg/kg i.p. daily; for CIA joint histopathology: day 8 to 42, vs saline; for CIA symptoms (clinical score): day 8 to 42, vs vehicle
Procedure: DBA1/J male mice (6–8 weeks) were obtained from The Jackson Laboratories (Bar Harbor, ME, USA). All animal experiments were performed in accordance with National Institutes of Health guidelines and approved by the Montana State University Institutional Animal Care and Use Committee.
To induce CIA in DBA1/J mice, immunization-grade bovine Type II collagen (CII) (Chondrex, Redmond, WA, USA) was solubilized in 0.05 M acetic acid (2 mg/ml), and 100 μg of CII emulsified in complete Freund’s adjuvant containing 4 mg/ml Mycobacterium tuberculosis (Chondrex) were injected subcutaneously (s.c.) in the tail ([Kochetkova et al., 2010]).
Mice were scored using a scale of 0 to 3 for each limb, with a maximal total score of 12, as previously described ([Schepetkin et al., 2015]): 0, no signs of inflammation; 1, mild redness or swelling of single digits; 2, significant swelling of ankle or wrist with erythema; and 3, severe swelling and erythema of multiple joints.
At 44 days after CII injection (CIA) or 14 days after anti-CII antibody injection (CAIA), the mice were euthanized, and their hind limbs were collected and fixed in 10% neutral buffered formalin. The limbs were decalcified in 5% formic acid for 3 to 6 days, and the joints were embedded in paraffin. Eight 8-μm sections were cut using a sagittal projection with 40 µm spacing of the cuts. Hematoxylin and eosin (H&E) and toluidine blue (TB) staining were performed for each sample.
H&E histopathological scores for the joints were determined by using a graded scale ([Schramm et al., 2004]), separately for cartilage destruction, pannus formation, and synovial cells changes. For cartilage destruction, the scale was: 0—normal, superficial zone is smooth; 1—superficial fibrillations, some loss of surface lamina; 2—vertical clefts/erosion to the calcified cartilage up to 25% of the surface; 3—vertical clefts/erosion to the calcified cartilage more than 25% of the surface, severe chondrocytes, and cartilage matrix loss with new bone tissue substitution, bone destruction. […] All sections of the hind paws and knee joints were examined, the highest score was recorded, with a total maximum score of 36 possible per mouse. The loss of the proteoglycans and cartilage degeneration was also scored in TB-stained sections on a graded scale of 0–3, as previously described ([Bernotiene et al., 2004]): 0—no cartilage loss; 1 – minimal chondrocytes and proteoglycan loss in superficial zone; 2—moderate chondrocytes and proteoglycan loss into middle zone but above tidemark; and 3—severe cartilage degeneration through tidemark, with the maximum score of 12 possible per mouse.

[4] = Cytotoxicity assay (CellTiter-Glo), HUVEC; assay type: cell-based; conditions: human, HUVECs; concentrations up to 50 µM; read-out: Cytotoxic effect HUVEC IC50
Procedure: Cytotoxicity was analyzed using a CellTiter-Glo Luminescent Cell Viability Assay Kit (Promega), according to the manufacturer’s protocol. Briefly, cells were cultured at a density of 10^4 to 10^5 cells/well with different concentrations of test compounds (final concentration of DMSO was 1%) for the indicated periods of time (2, 12, or 24 h) at 37°C and 5% CO2. Following treatment, substrate was added to the cells, and the samples were analyzed with a Fluoroscan Ascent FL microplate reader.

[5] = test system: MMP-3 secretion by FLS; assay: IL-1β-induced MMP-3 secretion by FLS (ELISA); assay type: cell-based; conditions: Homo sapiens; 30 min compound, then 5 ng/ml IL-1β, 24 h
From the text: as §1, with “Cells were allowed to adhere overnight, nonadherent cells were removed, and adherent fibroblast-like synoviocytes (FLS) were split at 1:3 when 70%–80% confluent. FLS were used from passages 3 through 9, during which time they are a homogeneous population of cells (<1% CD11b positive, <1% phagocytic, and <1% FcγRII and FcγRIII receptor positive).” left out
FLS, HUVEC, SW982, and THP-1 cells were plated in 96 well plates (10^4 to 10^5 cells/well) for 48 h before treatment. […] The levels of MMP-1 and MMP-3 were determined in culture supernatants using commercially available ELISA kits according to the manufacturer’s instructions (R&D System, Minneapolis, MN, USA). IL-6 levels were also determined in the supernatants using a human IL-6 ELISA kit (BD Biosciences, San Jose, CA, USA).

[6] = test system: IL-6 secretion by HUVEC; assay: IL-1β-induced IL-6 secretion by HUVEC (ELISA); assay type: cell-based; conditions: Homo sapiens, 30 min compound, then 5 ng/ml IL-1β, 24 h
Procedure: FLS, HUVEC, SW982, and THP-1 cells were plated in 96 well plates (10^4 to 10^5 cells/well) for 48 h before treatment. At 2 days post-confluency, the cells were serum-starved and washed twice (with the exception of THP-1 cell, which were not washed) with FBS-free medium prior to the addition of test compounds. The cells were incubated in the presence or absence of test compounds or DMSO (vehicle control) for 30 min at 37°C in a 5% CO2 atmosphere, IL-1β (5 ng/ml) was added, and the cells were incubated for an additional 24 h. Culture supernatants were collected and stored at –80°C. The levels of MMP-1 and MMP-3 were determined in culture supernatants using commercially available ELISA kits according to the manufacturer’s instructions (R&D System, Minneapolis, MN, USA). IL-6 levels were also determined in the supernatants using a human IL-6 ELISA kit (BD Biosciences, San Jose, CA, USA).

| Compound | IC50 [1] [µM] | FLS viability [2] | CIA joint histopathology [3] | CIA symptoms (clinical score) [3] | IC50 [4] [µM] | IC50 [5] [µM] | IC50 [6] [µM] |
| --- | --- | --- | --- | --- | --- | --- | --- |
| O=C1c2ccccc2-n2c1nc1ccccc1c2=O [TRYP, indolo[2,1-b]quinazolin-6,12-dione] | 16.7 ± 1.6 | neither TRYP nor TRYP-Ox affected FLS viability | little cartilage erosion, synovial hyperplasia, or cellular infiltration | significant reductions in CIA symptoms | 13.8 ± 1.5 | 12.7 ± 4.6 | 6.4 ± 2.7 |
| O=c1c2ccccc2nc2n1-c1ccccc1/C2=N/O [TRYP-Ox, tryptanthrin-6-oxime] | > 50 | neither TRYP nor TRYP-Ox affected FLS viability | little cartilage erosion, synovial hyperplasia, or cellular infiltration | significant reductions in CIA symptoms | > 50 | 3.8 ± 0.4 | 0.9 ± 0.3 |

From paper PMC7394103 (Frontiers in Pharmacology, 2020)
